Data as given in patent US20080221213A1, “Tablets Comprising a High Load of Strontium” (OSTEOLOGIX A/S SYMBION SCIENCE PARK, priority 2005, published 2008).

Assay: Single oral dose pharmacokinetic study in humans (healthy male volunteers), serum strontium by ICP-MS
Conditions: by inverse regression on the dose-AUC model; 95% CI [1.073, 1.115]

O=C([O-])CC(=O)[O-].[Sr+2] [strontium malonate]
Bioequivalent dose to 2.0 g strontium ranelate (Protelos) in terms of AUC5 week: 1.09 g
